Assay results published in the NIST ThermoML archive (doi:10.1021/je049579x).
“And” between values parts separate entries of the source, which are not always exact repeats. Equal values may be shown once.

Conditions: Crystal, Torsion effusion method

[Cl][Yb]([Cl])[Cl] [ytterbium trichloride]
Conditions	vapor or sublimation pressure
944 K	0.000158 kPa
950 K	0.000126 kPa
952 K	0.000126 kPa
953 K	0.000158 kPa
958 K	0.000158 kPa and 0.000282 kPa
961 K	0.000219 kPa
962 K	0.000191 kPa
966 K	0.000191 kPa and 0.000251 kPa
970 K	0.000251 kPa
972 K	0.000251 kPa
974 K	0.000347 kPa and 0.000316 kPa
975 K	0.000316 kPa and 0.000501 kPa
976 K	0.000282 kPa
980 K	0.00038 kPa
981 K	0.00038 kPa
982 K	0.000437 kPa and 0.00038 kPa
983 K	0.000437 kPa
986 K	0.000407 kPa
990 K	0.000603 kPa and 0.000468 kPa and 0.000537 kPa
992 K	0.000562 kPa
993 K	0.000871 kPa
994 K	0.000631 kPa
996 K	0.000631 kPa
999 K	0.000759 kPa and 0.000692 kPa
1000 K	0.000794 kPa and 0.000759 kPa
1001 K	0.000724 kPa
1005 K	0.000851 kPa and 0.001349 kPa
1007 K	0.001 kPa
1008 K	0.000912 kPa
1010 K	0.000977 kPa and 0.001 kPa
1015 K	0.001175 kPa and 0.00123 kPa
1016 K	0.001413 kPa
1017 K	0.00123 kPa and 0.001905 kPa
1019 K	0.001318 kPa
1020 K	0.001349 kPa and 0.001549 kPa
1023 K	0.001514 kPa
1026 K	0.001622 kPa
1029 K	0.001698 kPa
1030 K	0.002884 kPa
1035 K	0.002188 kPa
1036 K	0.002089 kPa and 0.002344 kPa and 0.002239 kPa
1038 K	0.002239 kPa and 0.002188 kPa
1044 K	0.002692 kPa and 0.00302 kPa and 0.004571 kPa
1046 K	0.002884 kPa
1048 K	0.00302 kPa
1050 K	0.003388 kPa
1052 K	0.003802 kPa
1053 K	0.003802 kPa
1054 K	0.003981 kPa
1055 K	0.003802 kPa and 0.006761 kPa
1057 K	0.004074 kPa
1062 K	0.005129 kPa and 0.005012 kPa
1063 K	0.004677 kPa and 0.004898 kPa and 0.005012 kPa
1064 K	0.004898 kPa
1071 K	0.005888 kPa and 0.006761 kPa and 0.006918 kPa
1072 K	0.00631 kPa and 0.006918 kPa and 0.006457 kPa
1079 K	0.008318 kPa
1081 K	0.008913 kPa and 0.00912 kPa
1082 K	0.00871 kPa
1087 K	0.01 kPa
1088 K	0.01202 kPa and 0.01148 kPa
1090 K	0.01202 kPa
1096 K	0.01349 kPa
